# Assays:
# Ras [1] = test: Ras-GTP pull down assay in Panc-1 cells; format: cell-based, human; details: 24 h
# Excerpt: (§1) In the following experiments it was examined whether the pancreatic cancer growth inhibitory effect of P-FTS 35 is associated with down regulation of Ras signaling. For this purpose, we used the Ras-GTP pull down assay.
# p-ERK and p-AKT = test: Immunoblotting of MIA PaCa-2 xenografts; format: in vivo, nude mice
# Method: B: Immunoblots of p-ERK, ERK, p-AKT and AKT in whole cell protein extracts from MIA PaCa-2 xenografts. Loading control: β-actin.
# (§2) The inhibition of Ras by P-FTS 35 was further confirmed in vivo. The Ras-GTP pull down assay was used to test the capacity of P-FTS 35 to inhibit active Ras in fresh protein lysates from MIA PaCa-2 xenografts. Compared to controls, P-FTS 35, 50 and 100 mg/kg reduced RAS activation in xenografts by 62% and 70%, respectively (p<0.01, for both; FIG. 8A).
# p-ERK1/2 = test: Immunostaining of xenograft tissue sections; format: in vivo, nude mice; details: compared to control
# Method: C: Growth of xenograft tumors treated without or with P-FTS 35 and stained for p-ERK expression. The percentage of p-ERK positive cells/field were determined and expressed as the mean±SEM (*P<0.03).
# as §2
# p-c-RAF = test: Immunostaining of xenograft tissue sections; format: in vivo, nude mice; details: compared to control
# Ras [2] = test: Ras-GTP pull down assay in lysates from MIA PaCa-2 xenografts; format: in vivo, nude mice; details: compared to controls
# Method: as §2
# [3] = system: RAF/MEK/ERK and PI3K/AKT pathways; test: Immunoblots of Ras downstream effectors in Panc-1 cells; format: cell-based, human
# Excerpt: C: Immunoblots of p-c-RAF, c-RAF, p-MEK, MEK, p-AKT and AKT in whole cell protein extracts from Panc-1 cells treated with P-FTS 35 as indicated. Loading control: β-actin.
# as §1
# AsPC-1 = test: Pancreatic cancer cell growth, 24 h; format: cell-based, human; details: AsPC-1, escalating concentrations
# Method: (§3) Cell growth was determined in the human pancreatic cancer cell lines AsPC-1, CFPAC-1, Capan-2, Panc-1 and MIA PaCa-2 after treatment with escalating concentrations of P-FTS 35 for 24 h.
# MIA PaCa-2 = test: Pancreatic cancer cell growth, 24 h; format: cell-based, human; details: MIA PaCa-2, escalating concentrations
# Method: as §3
# Panc-1 = test: Pancreatic cancer cell growth, 24 h; format: cell-based, human; details: Panc-1, escalating concentrations
# Method: as §3
# Capan-2 = test: Pancreatic cancer cell growth, 24 h; format: cell-based, human; details: Capan-2, escalating concentrations
# Method: as §3
# CFPAC-1 = test: Pancreatic cancer cell growth, 24 h; format: cell-based, human; details: CFPAC-1, escalating concentrations
# Method: as §3
# MIA PaCa-2 cells = test: Pancreatic cancer xenograft model in nude mice; format: in vivo; details: for reduction of tumor volume growth: day 25
# Method: The in vivo chemotherapeutic potential of P-FTS 35 was assessed using a pancreatic cancer xenograft model. MIA PaCa-2 cells were injected subcutaneously into the flank areas of nude mice. When palpable tumors were observed, the mice received P-FTS 35, 50 or 100 mg/kg/d by oral gavage in corn oil or just corn oil (control) for 25 days. On day 25 of treatment, P-FTS 35, 50 mg/kg/d, and P-FTS 35, 100 mg/kg/d reduced the tumor volume growth by 62% and 65%, respectively (p<0.05; FIG. 5).
# [4] = 3-week oral toxicity in BALB/c mice; format: in vivo
# Method: The toxicity of P-FTS 35 in mice was further examined. Groups of 6 week-old female BALB/c mice (5 mice/group) were given by oral gavage once a day for 3 weeks P-FTS 35: 0, 75, 150, 250 and 350 mg/kg. […] The (sub-chronic) maximum tolerated dose of P-FTS 35 (3-wk period of observation) was determined to be at least 350 mg/kg/d.
# CYP 3A4 = CYP 3A4 (Homo sapiens, UniProt P08684); test: Metabolism by recombinant human CYP isoforms; format: in vitro ADME; details: recombinant human CYP 25 pmol/ml, 37° C., NADPH-regenerating solution
# liver microsomes [5] = system: liver microsomes
# CYP 1A2 = CYP 1A2 (Homo sapiens, UniProt P05177); test: Metabolism by recombinant human CYP isoforms; format: in vitro ADME; details: recombinant human CYP 25 pmol/ml, 37° C., NADPH-regenerating solution
# CYP 2C19 = CYP 2C19 (Homo sapiens, UniProt P33261); test: Metabolism by recombinant human CYP isoforms; format: in vitro ADME; details: recombinant human CYP 25 pmol/ml, 37° C., NADPH-regenerating solution
# CYP 2D6 = CYP 2D6 (Homo sapiens, UniProt P10635); test: Metabolism by recombinant human CYP isoforms; format: in vitro ADME; details: recombinant human CYP 25 pmol/ml, 37° C., NADPH-regenerating solution
# [6] = Tolerated dose in mice (PA, ASA); format: in vivo
# Method: The ability of phospho-aspirin (PA) to prevent breast cancer (BC) was evaluated using MDA-MB-231 human BC cells xenografted into one of the mammary glands of nude mice (orthotopic xenografts). PA was administered orally, 120 mg/kg/d 1 wk prior to inoculating the cells (the standard prevention protocol); acetylsalicylic acid (ASA) was given at an equimolar dose of 40 mg/kg/d. This was the highest dose of ASA that these mice could tolerate on a long-term basis. The dose of PA represents <10% of its maximum tolerated dose (MTD≧1,600 mg/kg), but was chosen so that a comparison between PA and ASA was possible.
# CYP 2C9 = CYP 2C9 (Homo sapiens, UniProt P11712); test: Metabolism by recombinant human CYP isoforms; format: in vitro ADME; details: recombinant human CYP 25 pmol/ml, 37° C., NADPH-regenerating solution
# [7] = Levels of PA and metabolites in blood and xenografts by HPLC; format: in vivo, mice; details: for metabolites detected in plasma and xenograft tumors: mice treated with PA or ASA
# Method: The levels of PA and some of its metabolites in blood and xenografts from these mice were determined by HPLC according to the methods described by G. Xie et al. (Br J Pharmacol. 2012; 167(1):222-32).
# liver microsomes [8] = test: Metabolism in liver microsomes (HPLC)
# [9] = system: MDA-MB-231 human BC cells; test: Prevention of orthotopic MDA-MB-231 breast cancer xenografts in nude mice; format: in vivo; details: PA 120 mg/kg/d orally, from 1 wk prior to inoculating the cells
# [10] = cited from earlier work
# Sequence of CYP 2C19 (P33261 whole entry, canonical isoform): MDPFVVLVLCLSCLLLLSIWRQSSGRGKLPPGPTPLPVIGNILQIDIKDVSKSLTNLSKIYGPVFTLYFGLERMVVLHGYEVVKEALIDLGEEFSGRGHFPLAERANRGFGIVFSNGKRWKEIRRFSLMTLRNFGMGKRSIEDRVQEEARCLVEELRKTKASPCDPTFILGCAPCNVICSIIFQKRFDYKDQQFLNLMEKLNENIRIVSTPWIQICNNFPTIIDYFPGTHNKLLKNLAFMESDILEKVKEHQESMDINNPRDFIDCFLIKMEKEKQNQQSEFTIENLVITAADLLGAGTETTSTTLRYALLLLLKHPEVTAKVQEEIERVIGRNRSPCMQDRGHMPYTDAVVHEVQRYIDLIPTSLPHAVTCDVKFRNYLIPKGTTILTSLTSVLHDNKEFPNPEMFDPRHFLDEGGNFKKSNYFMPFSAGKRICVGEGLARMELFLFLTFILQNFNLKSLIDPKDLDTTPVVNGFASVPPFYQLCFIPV
# Sequence of CYP 2C9 (P11712 whole entry, canonical isoform): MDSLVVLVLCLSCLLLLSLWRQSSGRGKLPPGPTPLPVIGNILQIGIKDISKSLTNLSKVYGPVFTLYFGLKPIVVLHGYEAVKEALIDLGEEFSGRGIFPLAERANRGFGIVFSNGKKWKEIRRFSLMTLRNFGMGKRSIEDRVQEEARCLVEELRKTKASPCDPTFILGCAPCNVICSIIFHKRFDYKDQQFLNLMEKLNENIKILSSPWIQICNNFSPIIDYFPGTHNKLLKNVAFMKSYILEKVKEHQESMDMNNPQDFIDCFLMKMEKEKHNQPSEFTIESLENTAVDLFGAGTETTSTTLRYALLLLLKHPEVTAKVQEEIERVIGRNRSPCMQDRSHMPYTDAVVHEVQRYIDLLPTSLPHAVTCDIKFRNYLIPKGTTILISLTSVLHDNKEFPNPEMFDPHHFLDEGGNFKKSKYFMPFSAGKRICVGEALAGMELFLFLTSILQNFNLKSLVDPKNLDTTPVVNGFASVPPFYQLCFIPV
# Sequence of CYP 3A4 (P08684 whole entry, canonical isoform): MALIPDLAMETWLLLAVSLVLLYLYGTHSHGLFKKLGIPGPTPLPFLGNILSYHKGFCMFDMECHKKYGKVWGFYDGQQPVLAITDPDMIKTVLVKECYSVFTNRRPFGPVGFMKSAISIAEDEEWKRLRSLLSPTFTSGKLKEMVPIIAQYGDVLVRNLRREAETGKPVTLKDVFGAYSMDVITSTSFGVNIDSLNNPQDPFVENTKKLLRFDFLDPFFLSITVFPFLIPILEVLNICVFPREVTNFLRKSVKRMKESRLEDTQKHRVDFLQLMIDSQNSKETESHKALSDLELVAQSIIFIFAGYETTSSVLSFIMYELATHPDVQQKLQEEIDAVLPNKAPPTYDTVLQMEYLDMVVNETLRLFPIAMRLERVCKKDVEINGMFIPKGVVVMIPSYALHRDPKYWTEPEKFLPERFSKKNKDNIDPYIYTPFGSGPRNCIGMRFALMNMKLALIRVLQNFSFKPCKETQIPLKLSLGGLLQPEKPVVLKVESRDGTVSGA
# Sequence of CYP 2D6 (P10635 whole entry, canonical isoform): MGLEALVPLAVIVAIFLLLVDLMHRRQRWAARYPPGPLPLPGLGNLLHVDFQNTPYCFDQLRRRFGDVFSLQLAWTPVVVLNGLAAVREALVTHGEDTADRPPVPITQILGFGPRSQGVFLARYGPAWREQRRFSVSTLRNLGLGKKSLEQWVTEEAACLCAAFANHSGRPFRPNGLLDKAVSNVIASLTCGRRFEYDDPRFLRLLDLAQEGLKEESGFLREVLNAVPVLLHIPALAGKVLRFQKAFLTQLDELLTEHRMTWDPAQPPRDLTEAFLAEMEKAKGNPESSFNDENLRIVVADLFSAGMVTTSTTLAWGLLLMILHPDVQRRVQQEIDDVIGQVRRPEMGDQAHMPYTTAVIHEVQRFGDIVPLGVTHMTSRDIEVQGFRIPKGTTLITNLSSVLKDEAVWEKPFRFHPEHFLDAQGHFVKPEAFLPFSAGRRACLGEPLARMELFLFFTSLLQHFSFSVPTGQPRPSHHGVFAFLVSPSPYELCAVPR
# Sequence of CYP 1A2 (P05177 whole entry, canonical isoform): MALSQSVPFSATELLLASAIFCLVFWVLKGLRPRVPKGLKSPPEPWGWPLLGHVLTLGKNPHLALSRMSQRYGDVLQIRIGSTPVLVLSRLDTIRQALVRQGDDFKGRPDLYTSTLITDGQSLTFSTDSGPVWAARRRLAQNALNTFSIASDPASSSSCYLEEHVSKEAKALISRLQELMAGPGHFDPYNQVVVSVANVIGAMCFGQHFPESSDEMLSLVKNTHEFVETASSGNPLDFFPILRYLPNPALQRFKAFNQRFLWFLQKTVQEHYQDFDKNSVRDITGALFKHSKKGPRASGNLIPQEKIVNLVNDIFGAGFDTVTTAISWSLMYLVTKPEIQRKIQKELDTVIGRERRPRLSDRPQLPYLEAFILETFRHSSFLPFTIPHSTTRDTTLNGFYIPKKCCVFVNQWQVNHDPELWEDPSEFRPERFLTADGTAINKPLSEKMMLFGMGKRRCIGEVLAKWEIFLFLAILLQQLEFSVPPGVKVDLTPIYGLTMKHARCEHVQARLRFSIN
compound,measurement,setting,value
CCOP(=O)(OCC)OCCCCOC(=O)c1ccccc1SC/C=C(\C)CC/C=C(\C)CCC=C(C)C,decrease of Ras-GTP compared with the parent compound (FTS),Ras [1]; 50 μM,more pronounced
same,inhibition of active Ras (Ras-GTP),Ras [1],significantly inhibited active Ras (Ras-GTP) in a concentration-dependent manner
same,p-ERK and p-AKT in xenografts by immunoblotting,p-ERK and p-AKT,inhibition of p-ERK and p-AKT
same,reduction of expression of p-ERK1/2,p-ERK1/2,71%
same,reduction of expression of p-c-RAF,p-c-RAF,73%
same,reduction of RAS activation in xenografts,Ras [2]; 50 mg/kg,62%
same,reduction of RAS activation in xenografts,Ras [2]; 100 mg/kg,70%
same,inhibition of the RAF/MEK/ERK and PI3K/AKT pathways,[3],significant time-dependent inhibition
same,"cell growth, % control",AsPC-1,decreases pancreatic cancer cell growth in a concentration-dependent manner
same,"cell growth, % control",MIA PaCa-2,decreases pancreatic cancer cell growth in a concentration-dependent manner
same,"cell growth, % control",Panc-1,decreases pancreatic cancer cell growth in a concentration-dependent manner
same,"cell growth, % control",Capan-2,decreases pancreatic cancer cell growth in a concentration-dependent manner
same,"cell growth, % control",CFPAC-1,decreases pancreatic cancer cell growth in a concentration-dependent manner
same,reduction of tumor volume growth,MIA PaCa-2 cells; 50 mg/kg/d oral gavage in corn oil,62%
same,reduction of tumor volume growth,MIA PaCa-2 cells; 100 mg/kg/d oral gavage in corn oil,65%
same,tolerability in the efficacy study,"MIA PaCa-2 cells; 50 or 100 mg/kg/d, 25 days",well tolerated
same,weight loss or other signs of toxicity in the efficacy study,"MIA PaCa-2 cells; 50 or 100 mg/kg/d, 25 days",no weight loss or other signs of toxicity
same,weight loss or other signs of toxicity,"[4]; 75, 150, 250 and 350 mg/kg oral gavage once a day for 3 weeks, female BALB/c mice",no weight loss or other signs of toxicity
same,MTD at 3 weeks,"[4]; female, BALB/c, mouse, in vivo, 3-wk period of observation, oral gavage, read-out: (sub-chronic) maximum tolerated dose",≥ 350 mg/kg/day
"CC(=O)Oc1ccccc1C(=O)O [ASA, acetylsalicylic acid]",oxidation by CYP 3A4,CYP 3A4,cannot be oxidized
same,oxidation by liver microsomes,liver microsomes [5],not appreciably oxidized
same,oxidation by CYP 1A2,CYP 1A2,cannot be oxidized
same,oxidation (conversion of PSA to 5-OH-PSA) by CYP 2C19,CYP 2C19,cannot be oxidized
same,oxidation (conversion of PSA to 5-OH-PSA) by CYP 2D6,CYP 2D6,cannot be oxidized
same,highest dose that these mice could tolerate on a long-term basis,[6]; nude mice,40 mg/kg/day
same,oxidation by CYP 2C9,CYP 2C9,cannot be oxidized
same,metabolites detected in plasma and xenograft tumors,[7],Only salicylic acid (SA) was detected
"CCOP(=O)(OCC)OCCCCOC(=O)c1ccccc1OC(C)=O [PA, phospho-aspirin]",major metabolites detected in liver microsomes,liver microsomes [8]; HPLC,"phospho-salicylic acid [PSA], 3-OH-PSA and 5-OH-PSA"
same,deacetylation in liver microsomes,liver microsomes [8]; PA-treated liver microsomes,readily deacetylated
same,average tumor volume reduced compared to controls,[9],62%
same,treated mice that had no tumors,[9]; of the 20 treated mice,20%
same,treated mice that had tumors <100 mm^3,[9]; of the 20 treated mice,30%
same,maximum tolerated dose (MTD),[6]; mice,"≥ 1,600 mg/kg"
same,intact PA in plasma or xenografts,"[7]; mice treated with PA 120 mg/kg/d, HPLC",No intact PA in either plasma or xenografts was detected
same,metabolites detected in plasma and xenograft tumors,[7],Only salicylic acid (SA) was detected
same,difference in SA levels between PA and ASA groups,[7]; plasma and xenografts,no difference in SA levels
"O=C(O)c1ccccc1O [SA, salicylic acid]",oxidation by liver microsomes,liver microsomes [5],not appreciably oxidized
CC1=C(CC(=O)O)c2cc(F)ccc2/C1=C\c1ccc([S+](C)[O-])cc1 (stereo not drawn) [sulindac],"gastrointestinal side effects, share of patients",[10],up to 20%
same,"skin rash and pruritus, share of patients",[10],5%

# — patent US20140121185A1 (Medicon Pharmaceuticals, Inc., priority 2012, published 2014)
